# Entries after “also recorded” stand apart in the source; their conditions may differ.
# Experiments:
# [1] = test system: male C57BL/6J ob/ob mice; assay: Blood glucose in ob/ob mice on dietary curcumin; format: in vivo, mouse; conditions: dietary curcumin (3%), p<0.05
# [2] = test system: male C57BL/Ks db/db mice; assay: Blood glucose in db/db mice (dietary curcumin or single i.p. injection); format: in vivo, mouse; conditions: for blood glucose after a single intraperitoneal injection: epoxomicin 0.1 mg/kg or celastrol 3 mg/kg i.p., male db/db mice, noted approximately 10 hours after injection; for duration of blood glucose lowering after injection: single i.p. injection
# From the text: (§1) This translated into a daily consumption by the mice of roughly 1.0 to 1.5 g/kg/day.
# Male C57BU6J mice gradually develop obesity and moderate diabetes when placed on high-fat diets, a process quite analogous to that in humans. […] However, the loss of leptin effect on the C57BL/Ks background is not compensated for by β-cell hyperplasia and hyperinsulinemia. At a very young age these mice become severely hyperglycemic, hyperphagic, and polydipsic. As they mature, they start to lose weight, develop nephropathy, and ultimately die around age 40 weeks from diabetic complications.
# (§2) This effect was noted to last for at least 48 hours post-injection. Mice receiving vehicle in the celastrol and epoxomicin experiments were food entrained to the treatment group to avoid any acute effects on glucose levels from differences in food intake.
# [3] = test system: DIO C57BL/6J, C57BL/6J ob/ob and C57BL/Ks db/db mice; assay: Random fed glucose and HbA1c in the three mouse models of diabetes; format: in vivo
# [4] = test system: male C57BL/6J DIO mice; assay: Glucose tolerance test in DIO mice; format: in vivo, mouse; conditions: dietary curcumin
# Procedure: as §1, §2
# [5] = test system: male C57BL/6J ob/ob mice; assay: Insulin tolerance test in ob/ob mice; format: in vivo, mouse; conditions: dietary curcumin (3%)
# Procedure: as §1, §2
# [6] = test system: male C57BL/6J ob/ob mice; assay: Body composition (Bruker NMR), food intake and liver in ob/ob mice; format: in vivo, mouse
# [7] = test system: male C57BL/6J DIO mice; assay: Body composition, food intake and liver in DIO mice; format: in vivo, mouse
# [8] = test system: male C57BL/Ks db/db mice; assay: Body composition (Bruker NMR), food intake and liver in db/db mice; format: in vivo, mouse; conditions: dietary curcumin (3%)
# [9] = test system: TNF-α, Socs-3, Ccl2 (MCP-1 gene) and Ccr2 (MCP-1 receptor gene); assay: Quantitative real-time PCR of hepatic inflammatory genes in ob/ob mice; format: in vivo, mouse; conditions: dietary curcumin, 10 weeks; male ob/ob mice
# From the text: (§3) These included TNF-α, Socs-3, Ccl2 (MCP-1 gene) and Ccr2 (MCP-1 receptor gene).
# [10] = test system: NFkB p65; assay: p65 activity assay (TransAM NFkB p65 Kit) in liver nuclear extracts of ob/ob mice; format: in vivo, mouse; conditions: dietary curcumin, 10 weeks; liver nuclear extract of ob/ob mice
# From the text: as §3
# [11] = test system: adiponectin (Acdc), F480 (Emr1); assay: Quantitative real-time PCR of white adipose tissue of ob/ob mice; format: in vivo, mouse; conditions: dietary curcumin, 10 weeks; male ob/ob mice
# From the text: (§4) Given that the adipose tissue of obese subjects is chronically inflamed and secretes diabetogenic adipokines, we investigated the possibility that proteasome inhibition improves diabetes by decreasing adipose inflammation in obese diabetic mice.
# [12] = Serum adiponectin in ob/ob mice; format: in vivo, mouse; conditions: curcumin-treated ob/ob mice (not shown)
# From the text: as §4
# [13] = test system: macrophages in adipose tissue of ob/ob mice; assay: Adipose macrophage immunohistochemistry (F480 antibody) in ob/ob mice; format: in vivo, mouse; conditions: dietary curcumin; male C57BL/6J ob/ob mice
# [14] = Serum insulin in db/db mice; format: in vivo, mouse; conditions: for serum insulin: single i.p. dose, celastrol 3 mg/kg or epoxomicin 0.1 mg/kg, 24 hours post injection, male C57BL/Ks db/db mice
# From the text: (§5) As FIGS. 19 and 20 A-C reveal, untreated ob/ob mice develop pancreatic β-cell hyperplasia and hyperinsulinemia, a phenomenon that ultimately allows them to recoup normoglycemia. The pancreatic islets in untreated C57BL/Ks db/db mice however, degenerate (FIG. 20 D-F).
# [15] = test system: pancreatic islets of C57BL/Ks db/db mice; assay: Immunohistology of pancreatic islets in db/db mice; format: in vivo, mouse; conditions: curcumin-treated C57BL/Ks db/db mice
# From the text: as §5
# [16] = test system: diabetic streptozotocin-treated rat; conditions: oral curcumin therapy; preclinical studies, mostly streptozotocin-treated rat; cited from earlier work
# [17] = test system: male C57BL/Ks db/db mice; assay: Insulin tolerance test in db/db mice; format: in vivo, mouse; conditions: celastrol i.p., 24 hours after a single injection
# Procedure: as §2
# [18] = test system: adiponectin (Acdc), Ccl2 (MCP-1); assay: Gene expression in white adipose tissue of db/db mice after celastrol; format: in vivo, mouse; conditions: celastrol i.p. once daily for 3 days; male db/db mice
# [19] = test system: rat β-cell line INS-1; assay: INS-1 viable cell number (CellTiter-Blue Cell Viability Assay); format: cell-based; conditions: INS-1 cells, 24 hours
# From the text: To follow-up on the potential ability of proteasome inhibition to improve β-cell function, we performed experiments using the rat β-cell line Ins-1.
# [20] = target: chymotrypsin-like activity of a purified 20S proteasome (Homo sapiens, UniProt P28074); conditions: reported (ref. 83); cited from earlier work
# [21] = target: T1, human prostate cancer cellular 26S proteasome (Homo sapiens, UniProt P28074); conditions: reported (ref. 83); cited from earlier work
# T1 construct: human prostate cancer cellular 26S proteasome
# [22] = test system: human prostrate cancer growth in nude mice; conditions: tumor-bearing nude mice; 1-3 mg/kg/d (i.p.); cited from earlier work
# [23] = daily doses about 0.5 to about 3.0 mg/kg/d (i.p.); cited from earlier work
# [24] = test system: Glucotoxic HIT-T15 β-cells; conditions: cited from earlier work
# [25] = curcumin-fed ob/ob mice vs controls (data not shown)
# [26] = dietary curcumin (3%), ob/ob mice
compound,measurement,setting,value
COc1cc(/C=C/C(=O)CC(=O)/C=C/c2ccc(O)c(OC)c2)ccc1O [curcumin],effect on hyperglycemia (blood glucose),[1],significant protective effect against hyperglycemia
same,effect on hyperglycemia (blood glucose),"[2]; dietary curcumin (3%), male C57BL/Ks db/db mice, p<0.05",significant protection against hyperglycemia
same,HbA1c levels,"[3]; 3% dietary curcumin, all mouse models of diabetes tested",significant decreases; also recorded: decreases HbA1c percentage
same,random fed glucose,"[3]; 3% dietary curcumin, all three diabetic mice categories, as early as 2-3 weeks",significant decreases
same,HbA1c percentage in non-diabetic mice,"[3]; dietary curcumin (3%), non-diabetic mice",not affected
same,AUC of glucose tolerance test,[4],improved glucose tolerance; also recorded: significantly lowers AUC of glucose
same,AUC of insulin tolerance test,[5],decreased area under the curve (AUC); also recorded: significantly lowers AUC of insulin tolerance test
same,degree of liver steatosis,[6]; [25],significantly lower
same,liver weight,[6]; [25],significantly lower
same,adipose mass / body fat,[6]; [26],significantly less body fat; also recorded: significantly decreases
same,body weight,[6]; [26],weighed slightly but significantly less; also recorded: significantly decreases body weight
same,lean body mass (NMR),[6]; [26],significantly more lean mass; also recorded: significantly increases lean body mass
same,body weight,"[7]; 3% curcumin in food, DIO mice",weighed slightly but significantly less
same,liver weight,"[7]; curcumin treatment, DIO mice",significantly lower; also recorded: significantly decreased
same,degree of liver steatosis,[7]; curcumin-fed DIO mice vs controls (data not shown),significantly lower
same,body fat percentage / body fat,"[7]; one month of curcumin treatment, DIO mice",significantly less body fat; also recorded: significantly decreased body fat percentage
same,body weight,[8],weighed more; also recorded: significantly increased
same,lean muscle mass (NMR),[8],significantly more lean mass; also recorded: significantly increased lean muscle mass
same,"hepatic expression of pro-inflammatory genes (TNF-α, Socs-3, Ccl2, Ccr2)",[9],significantly downregulated; also recorded: significantly lowers hepatic expression of pro-inflammatory genes
same,hepatic NF-κB activity,[10],significantly less NFkB activity; also recorded: significantly decreases hepatic NF-κB activity
same,F480 (Emr1) expression in white adipose tissue,[11],significantly decreased macrophage-specific Emr1 (F480) expression; also recorded: decreases F480 (Emr1) expression
same,adiponectin (Acdc) expression in white adipose tissue,[11],dramatically increased; also recorded: significantly increases expression of adiponectin (Acdc)
same,serum adiponectin levels,[12],significantly higher
same,adipose macrophage infiltration (F480 staining),[13],dramatic reduction in the number of macrophages; also recorded: significant reduction of adipose macrophage infiltration
same,serum insulin levels,"[14]; dietary curcumin, db/db mice",exhibit hyperinsulinemia; also recorded: significantly increased serum insulin levels
same,proliferating β-cells (nuclear Ks67 immunoreactivity),[15],contain some proliferating β-cells
same,pancreatic islet morphology (hyperplasia),[15]; age 20 weeks,islets actually become hyperplastic; also recorded: hyperplasia of the pancreatic islets
same,diabetes-related hyperglycemia or end-organ damage,[16],"prevents, delays, or ameliorates diabetes-related hyperglycemia or end-organ damage"
celastrol,blood glucose after a single intraperitoneal injection,[2],correction of hyperglycemia; also recorded: significantly lowers blood glucose
same,duration of blood glucose lowering after injection,[2]; male C57BL/Ks db/db mice,~2 days
same,AUC of ITT,[17],improved insulin tolerance; also recorded: significantly lower AUC of ITT
same,Ccl2 (MCP-1) expression in white adipose tissue,[18],significantly decreased adipose expression of Ccl-2; also recorded: decreasing expression of Ccl2 (MCP-1)
same,adiponectin (Acdc) expression in white adipose tissue,[18],significantly increased expression of adiponectin; also recorded: significantly increases expression of adiponectin (Acdc)
same,serum insulin,[14],significant increases in serum insulin; also recorded: significantly increase serum insulin
same,cell viability at highest concentrations,[19],proved cytotoxic; also recorded: negative effects on cell viability
same,IC50,[20],2500 nM
same,concentration inhibiting human prostate cancer cellular 26S proteasome,[21],1-5 μM/L
same,tumor growth,[22],inhibition of tumor growth
CC[C@H](C)[C@H](NC(=O)[C@H]([C@@H](C)CC)N(C)C(C)=O)C(=O)N[C@H](C(=O)N[C@@H](CC(C)C)C(=O)[C@@]1(C)CO1)[C@@H](C)O [epoxomicin],blood glucose after a single intraperitoneal injection,[2],correction of hyperglycemia; also recorded: significantly lowers blood glucose
same,duration of blood glucose lowering after injection,[2]; male C57BL/Ks db/db mice,~2 days
same,serum insulin,[14],significant increases in serum insulin; also recorded: significantly increase serum insulin
same,antiinflammatory activity,[23],exhibits antiinflammatory activity
CC(=O)N[C@@H](CSC(=O)[C@]1([C@@H](O)C(C)C)NC(=O)[C@H](C)[C@@H]1O)C(=O)O [lactacystin],MafA protein,[24],caused an accumulation of MafA protein
